Values quoted from earlier work as cited in patent US20070292887A1, “Immunohistochemical Methods” (Bayer Pharmaceuticals Corporation, priority 2003, published 2007).
Read-outs that look alike come from different tables or passages of the source.

Legend:
[1] = system: human cancer cell lines; conditions: in vivo
[2] = system: SKOV3 xenografts; conditions: SKOV3 xenografts in mice
[3] = system: MDA-MB-231 xenografts; conditions: MDA-MB-231 xenografts in mice
[4] = system: human cancer cell lines; conditions: in vitro
[5] = system: SKOV (human ovarian cancer) cells; conditions: preincubation of SKOV cells
[6] = system: keratinocytes (normal skin); conditions: biopsies of normal skin prior to and following administration, humans

expression of Ki-67 in keratinocytes [6]: decreased expression
SMILES: COc1cc2ncnc(Nc3ccc(F)c(Cl)c3)c2cc1OCCCN1CCOCC1 [ZD1839]
proliferation of human cancer cell lines [1]: inhibited the proliferation
constitutive ERK MAP kinase activation [2]: inhibition
tumor growth rates [2]: reductions in tumor growth rates
constitutive ERK MAP kinase activation [3]: inhibition
tumor growth rates [3]: reductions in tumor growth rates
proliferation of human cancer cell lines [4]: inhibited the proliferation
EGF-induced increases in activation of ERK MAP kinases [5]: block
EGF-induced increases in activation of PKB/Akt [5]: block
expression of activated MAPK in keratinocytes [6]: decreased expression
